In publication PMC9306920 (Clinical Pharmacology in Drug Development, 2022):

Tests used:
[1] = system: healthy subjects; test: Thorough QT study: cardiodynamic ECG assessment; assay type: in vivo, human
[2] = Plasma pharmacokinetics in thorough QT study; assay type: in vivo, human; details: moxifloxacin 400 mg single oral dose

COc1c(N2C[C@@H]3CCCN[C@@H]3C2)c(F)cc2c(=O)c(C(=O)O)cn(C3CC3)c12 [Moxifloxacin]
Subjects with QTcF of >450 milliseconds or ΔQTcF of >30 milliseconds ([1]; any treatment, any time point): No subject
U-wave presence ([1]; during the study): No U‐wave observations
Largest LS mean ΔQRS ([1]; moxifloxacin 400 mg, 0.5, 1, and […] after dosing): 0.2 milliseconds
Largest LS mean ΔΔQTcF ([1]; moxifloxacin 400 mg, 2 hours after dosing): 12.9 milliseconds
Peak LS mean ΔQTcF ([1]; moxifloxacin 400 mg, 3 hours after dosing): 9.2 milliseconds
Largest LS mean ΔHR ([1]; moxifloxacin 400 mg, 6 hours after dosing): 8.7 bpm
Frequencies of flat, notched, and biphasic T-wave morphologies ([1]; versus placebo): lower than or the same as for placebo
Time at which plasma concentration reached its maximal value [2]: 2 h
Time plasma concentration remained detectable [2]: 72 h
